Source: the supplement of paper PMC11208160

Assay: recombinant barcode read abundance after kanamycin selection (control-corrected) (log10(CPM+1)); higher = more efficient recombination; sequences stand for … in AGTGCAGAGAAAATCGGCCAGTTTTCTCTGCCTGCAGTCCGCATGCCGT…AGATTTATGCAGCGGACTGCCTTTCTCCCAAAGTGATAAACCGGACAGTATCATGGACCGGTTTTCCCGGTAATCCGTATTTGCAAGGTTGGTTTCACT; site = the 11-nt target
In short: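 For this pooled screen, each oligo contained a promoter, a target, a barcode and the J23119-driven first 104 bases of the bridge RNA. Gibson cloning placed it into a vector supplying the remaining 73 bp and a T7-inducible recombinase, and the pool was co-electroporated into E. coli with a donor plasmid. Recombination efficiency is derived from barcode counts per million at recombinant junctions after averaging and control correction, and is expressed on a log scale as log10(CPM+1), with selection on chloramphenicol/ampicillin/kanamycin plus 0.1 mM IPTG against a chloramphenicol/ampicillin LB agar control.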
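Also: IS621 recombinase and bridge RNA in Escherichia coli cells.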

Q: Which “recombinant barcode read abundance (log10)” value does the source give for “GGGGTATCTTGGGTTCTAACCTGTTGCCT (site GCGGTATCTAG)” here?
A: The value was 0.0929.

Q: Which “recombinant barcode read abundance (log10)” value does the source give for “GGGGTATCTTGGGTTCTAACCTGTTGCCT (site GGGGTATCTAG)” here?
A: Its value is 1.21.

Q: For “GGGTAAACTTGGGTTCTAACCTGTTGCCT (site GGGTAAACTAG)”, which “recombinant barcode read abundance (log10)” value is on record?
A: Its value is 0.953.

Q: For “GGGTAAACTTGGGTTCTAACCTGTTGCCT (site GGGTAATCTAG)”, which “recombinant barcode read abundance (log10)” value is on record?
A: The value was 0.702.

Q: Which “recombinant barcode read abundance (log10)” value does the source give for “GGGTAACCTTGGGTTCTAACCTGTTGCCT (site AGGTAACCTAG)” here?
A: Its value is 0.

Q: Which “recombinant barcode read abundance (log10)” value does the source give for “GGGTAACCTTGGGTTCTAACCTGTTGCCT (site CGGTAACCTAG)” here?
A: The value was 0.064.

Q: For “GGGTAACCTTGGGTTCTAACCTGTTGCCT (site GGGTAACCTAG)”, which “recombinant barcode read abundance (log10)” value is on record?
A: The value was 0.406.

Q: Which “recombinant barcode read abundance (log10)” value does the source give for “GGGTAACCTTGGGTTCTAACCTGTTGCCT (site TGGTAACCTAG)” here?
A: Its value is 0.19.

Q: With “GGGTCCACTTGGGTTCTAACCTGTTGCCA (site GGGTCCACTCC)” as the sequence, how does the “recombinant barcode read abundance (log10)” value read?
A: The value was 0.127.

Q: For “GGGTCCACTTGGGTTCTAACCTGTTGCCA (site GGGTCCACTTG)”, which “recombinant barcode read abundance (log10)” value is on record?
A: Its value is 1.44.

Q: For “GGGTCCTCTTGGGTTCTAACCTGTTGCCA (site GGGTCCTCTAG)”, which “recombinant barcode read abundance (log10)” value is on record?
A: The value was 1.69.

Q: For “GGGTCCTCTTGGGTTCTAACCTGTTGCCA (site GGGTCCTCTCG)”, which “recombinant barcode read abundance (log10)” value is on record?
A: The value was 0.29.

Q: With “GGGTCCTCTTGGGTTCTAACCTGTTGCCA (site GGGTCCTCTGG)” as the sequence, how does the “recombinant barcode read abundance (log10)” value read?
A: Its value is 0.0677.

Q: With “GGGTCCTCTTGGGTTCTAACCTGTTGCCA (site GGGTCCTCTTG)” as the sequence, how does the “recombinant barcode read abundance (log10)” value read?
A: Its value is 1.29.

Q: For “GGGTCCTCTTGGGTTCTAACCTGTTGCCT (site GGGTCCTCTAG)”, which “recombinant barcode read abundance (log10)” value is on record?
A: Its value is 2.24.

Q: With “GGGTCCTCTTGGGTTCTAACCTGTTGCCT (site GGGTCCTCTCG)” as the sequence, how does the “recombinant barcode read abundance (log10)” value read?
A: Its value is 0.776.

Q: With “GGGTCCTCTTGGGTTCTAACCTGTTGCCT (site GGGTCCTCTGG)” as the sequence, how does the “recombinant barcode read abundance (log10)” value read?
A: The value was 0.578.

Q: Which “recombinant barcode read abundance (log10)” value does the source give for “GGGTCCTCTTGGGTTCTAACCTGTTGCCT (site GGGTCCTCTTG)” here?
A: The value was 0.155.

Q: With “GGGTCGGCTTGGGTTCTAACCTGTTGCGA (site GGGTCGGCTAC)” as the sequence, how does the “recombinant barcode read abundance (log10)” value read?
A: The value was 0.231.

Q: With “GGGTCGGCTTGGGTTCTAACCTGTTGCGA (site GGGTCGGCTCC)” as the sequence, how does the “recombinant barcode read abundance (log10)” value read?
A: Its value is 0.552.

Q: Which “recombinant barcode read abundance (log10)” value does the source give for “GGGTCGGCTTGGGTTCTAACCTGTTGCGA (site GGGTCGGCTGC)” here?
A: The value was 0.179.

Q: For “GGGTCGGCTTGGGTTCTAACCTGTTGCGA (site GGGTCGGCTTC)”, which “recombinant barcode read abundance (log10)” value is on record?
A: Its value is 2.27.

Q: With “GGTAAAGCTTGGGTTCTAACCTGTTGCCT (site GGTAAAGCTAG)” as the sequence, how does the “recombinant barcode read abundance (log10)” value read?
A: Its value is 0.71.

Q: Which “recombinant barcode read abundance (log10)” value does the source give for “GGTAAAGCTTGGGTTCTAACCTGTTGCCT (site GGTATAGCTAG)” here?
A: Its value is 0.216.

Q: For “GGTAATACTTGGGTTCTAACCTGTTGCAT (site AACGTACCTTG)”, which “recombinant barcode read abundance (log10)” value is on record?
A: Its value is 0.191.

Q: With “GGTAATACTTGGGTTCTAACCTGTTGCAT (site GGTAATACTAT)” as the sequence, how does the “recombinant barcode read abundance (log10)” value read?
A: Its value is 0.957.

Q: With “GGTACGCCTTGGGTTCTAACCTGTTGCAT (site GGTACGACTCT)” as the sequence, how does the “recombinant barcode read abundance (log10)” value read?
A: The value was 0.17.

Q: With “GGTACGCCTTGGGTTCTAACCTGTTGCAT (site GGTACGCCTAT)” as the sequence, how does the “recombinant barcode read abundance (log10)” value read?
A: The value was 0.685.

Q: Which “recombinant barcode read abundance (log10)” value does the source give for “GGTAGGACTTGGGTTCTAACCTGTTGCCT (site AGTAGGACTAG)” here?
A: The value was 0.239.

Q: For “GGTAGGACTTGGGTTCTAACCTGTTGCCT (site CGTAGGACTAG)”, which “recombinant barcode read abundance (log10)” value is on record?
A: The value was 0.0936.

Q: For “GGTAGGACTTGGGTTCTAACCTGTTGCCT (site GGTAGGACTAG)”, which “recombinant barcode read abundance (log10)” value is on record?
A: The value was 0.278.

Q: With “GGTAGGACTTGGGTTCTAACCTGTTGCCT (site TGTAGGACTAG)” as the sequence, how does the “recombinant barcode read abundance (log10)” value read?
A: Its value is 0.0335.

Q: For “GGTATGACTTGGGTTCTAACCTGTTGCCT (site AGTATGACTAG)”, which “recombinant barcode read abundance (log10)” value is on record?
A: Its value is 0.595.

Q: Which “recombinant barcode read abundance (log10)” value does the source give for “GGTATGACTTGGGTTCTAACCTGTTGCCT (site CGTATGACTAG)” here?
A: The value was 0.197.

Q: For “GGTATGACTTGGGTTCTAACCTGTTGCCT (site GGTATGACTAG)”, which “recombinant barcode read abundance (log10)” value is on record?
A: Its value is 0.956.

Q: Which “recombinant barcode read abundance (log10)” value does the source give for “GGTATGACTTGGGTTCTAACCTGTTGCCT (site TGTATGACTAG)” here?
A: Its value is 0.0723.
